Reference: US20240246920A1, “TRIAZOLE DERIVATIVES WITH ANTIFUNGAL ACTIVITY” (King's College London, priority 2020, published 2024)
In brackets after ≈: the same amount, converted by molar mass. Read-outs that look alike come from different tables or passages of the source.

Legend:
C. krusei NCPF3876 = assay: microbe, parasite or virus in culture; type: cell-based, Candida krusei; conditions: Pichia kudriavzevii, NCPF3876; Table 4, common panel; 24 hours, ≥50% inhibition; read-out: MIC C. krusei NCPF3876
Method: (§1) The minimum inhibitory concentration of test compounds were determined in a panel of Candida species (see Table 4 below), using the a serial dilution method in 96-well plates using the following protocol.
(§2) Starter cultures of fungal strains to be tested were grown in 3 mL of RPMI 2% glucose media incubated at 37° C. with shaking at 200 rpm overnight. The culture media used was 900 mL H2O; 10.4 g RPMI 1640 (with L-glutamine and a pH indicator but without bicarbonate); 34.5 g MOPS and 18 g glucose. The pH of the media was adjusted to 7.0 with 1 M sodium hydroxide.
(§3) Solutions of the compound to be tested were prepared by dissolving the compound in DMSO and subsequently into media to the desired concentrations. […] The last two rows of each plate were control rows containing the culture media alone and the media plus fungi.
(§4) The fungi starter cultures were diluted 1:10 in water in cuvettes. This was then further diluted to an optical density (OD600) of 0.01 in media. 100 μL of the fungi was added to each well giving a starting concentration of fungus of 0.5-5×10^5/mL. One species of fungus was used on each plate. The plates were then held at 37° C. for 24 hours.
(§5) A plate reader was used to measure growth in each well at OD530 nm and the MIC was determined for each test compound. The MIC is defined as the lowest concentration giving rise to inhibition of ≥50% of that of the drug-free control well containing the fungus and media.

Candida auris TDG2211 = assay: microbe, parasite or virus in culture; type: cell-based; conditions: Candidozyma auris, TDG2211; Table 4, extended panel; 24 hours, ≥50% inhibition; read-out: MIC Candida auris TDG2211
Method: as §1, §2, §3, §4, §5
(§6) The Candida auris strains shown in Table 7 were either taken from the National Collection of Pathogenic Fungi (NCPF) or collected as part of ongoing surveillance studies. The strains were characterised as follows.

Candida auris TDG2506 = assay: microbe, parasite or virus in culture; type: cell-based; conditions: Candidozyma auris, TDG2506; Table 4, extended panel; 24 hours, ≥50% inhibition; read-out: MIC Candida auris TDG2506
Method: as §1, §2, §3, §4, §5, §6

C. auris TDG1912 = assay: Candida panel MIC, serial dilution in 96-well plates; type: cell-based; conditions: Candidozyma auris, read-out: MIC C. auris TDG1912
Method: as §1, §2
(§7) Solutions of the compound to be tested were prepared by dissolving the compound in DMSO and subsequently into media to the desired concentrations. 200 μL of compound solution was then added to the wells of the 96-well plate using a serial dilution method row-by row of the plate to give a compound concentration gradient across the plate of from 128 μg/mL to 0.25 μg/mL. The last two rows of each plate were control rows containing the culture media alone and the media plus fungi.
as §4, §5

C. tropicalis NCPF8760 = assay: as above; type: cell-based; conditions: NCPF8760, Table 4, common panel, 24 hours, ≥50% inhibition, read-out: MIC C. tropicalis NCPF8760
Method: as §1, §2, §7, §4, §5

Candida auris TDG2512 = assay: as above; type: cell-based; conditions: Candidozyma auris, read-out: MIC Candida auris TDG2512
Method: as §1, §2, §7, §4, §5

Candida auris TDG1102 = assay: as above; type: cell-based; conditions: Candidozyma auris, TDG1102; Table 4, extended panel; 24 hours, ≥50% inhibition; read-out: MIC Candida auris TDG1102
Method: as §1, §2, §7, §4, §5

C. auris 8984 = assay: as above; type: cell-based, Candida auris; conditions: Candidozyma auris, 8984; Table 4, extended panel; 24 hours, ≥50% inhibition; read-out: MIC C. auris 8984
Method: as §1, §2, §3, §4, §5, §6

C. auris 8977 = assay: as above; type: cell-based, Candida auris; conditions: Candidozyma auris, 8977; Table 4, extended panel; 24 hours, ≥50% inhibition; read-out: MIC C. auris 8977
Method: as §1, §2, §3, §4, §5, §6

C. auris 8971 = assay: as above; type: cell-based, Candida auris; conditions: Candidozyma auris, 8971; Table 4, extended panel; 24 hours, ≥50% inhibition; read-out: MIC C. auris 8971
Method: as §1, §2, §3, §4, §5, §6

C. albicans NCPF3281 = assay: as above; type: cell-based, Candida albicans; conditions: Candida albicans, read-out: MIC C. albicans NCPF3281
Method: as §1, §2, §7, §4, §5

C. glabrata NCPF8018 = assay: as above; type: cell-based, Candida glabrata; conditions: Nakaseomyces glabratus, NCPF8018; Table 4, common panel; 24 hours, ≥50% inhibition; read-out: MIC C. glabrata NCPF8018
Method: as §1, §2, §3, §4, §5

C. parapsilosis NCPF3209 = assay: microbe, parasite or virus in culture; type: cell-based, Candida parapsilosis; conditions: Lodderomyces parapsilosis, NCPF3209; Table 4, common panel; 24 hours, ≥50% inhibition; read-out: MIC C. parapsilosis NCPF3209
Method: as §1, §2, §3, §4, §5

[1] = TDG1912, Table 4, 24 hours, ≥50% inhibition
[2] = TDG2512, Table 4, extended panel, 24 hours, ≥50% inhibition
[3] = NCPF3281, Table 4, common panel, 24 hours, ≥50% inhibition

Row | SMILES | MIC (C. krusei NCPF3876) | MIC (Candida auris TDG2211) | MIC (Candida auris TDG2506) | MIC (C. auris TDG1912; [1]) | MIC (C. tropicalis NCPF8760) | MIC (Candida auris TDG2512; [2]) | MIC (Candida auris TDG1102) | MIC (C. auris 8984) | MIC (C. auris 8977) | MIC (C. auris 8971) | MIC (C. albicans NCPF3281; [3]) | MIC (C. glabrata NCPF8018) | MIC (C. parapsilosis NCPF3209) | MIC (C. auris TDG1912; TDG1912, 24 h) | MIC (Candida auris TDG2512; TDG2512, 24 h) | MIC (C. albicans NCPF3281; NCPF3281, 24 h)
1 | OC(CN1CCC(Nc2ccc(OCCN3CCCC3)cc2)CC1)(Cn1cncn1)c1ccc(F)cc1F (stereo not shown) [Example 82] | 8 µg/mL (≈ 15.2 µM) | 0.5 to 2 µg/mL (≈ 0.949 to 3.8 µM) | 4 µg/mL (≈ 7.6 µM) | 4 to 16 µg/mL (≈ 7.6 to 30.4 µM) | > 32 µg/mL | 1 µg/mL (≈ 1.9 µM) | 16 µg/mL (≈ 30.4 µM) | 4 µg/mL (≈ 7.6 µM) | 4 to 16 µg/mL (≈ 7.6 to 30.4 µM) | 2 to 8 µg/mL (≈ 3.8 to 15.2 µM) | 0.25 µg/mL (≈ 0.475 µM) | 32 µg/mL (≈ 60.8 µM) | 0.25 µg/mL (≈ 0.475 µM) |  |  | 
2 | CC1CCN(COc2ccc(NC3CCN(CC(O)(Cn4cncn4)c4ccc(F)cc4F)CC3)cc2)CC1 (stereo not shown) [Example 83] | 4 µg/mL (≈ 7.4 µM) | 0.25 µg/mL (≈ 0.462 µM) | 0.5 to 2 µg/mL (≈ 0.925 to 3.7 µM) | 1 to 4 µg/mL (≈ 1.85 to 7.4 µM) | 8 µg/mL (≈ 14.8 µM) | 0.25 µg/mL (≈ 0.462 µM) | 4 µg/mL (≈ 7.4 µM) | 2 µg/mL (≈ 3.7 µM) | 1 µg/mL (≈ 1.85 µM) | 1 µg/mL (≈ 1.85 µM) | 0.06 µg/mL (≈ 0.111 µM) | 8 µg/mL (≈ 14.8 µM) | 0.06 µg/mL (≈ 0.111 µM) |  |  | 
3 | Cc1ccc(Oc2ccc(NC3CCN(CC(O)(Cn4cncn4)c4ccc(F)cc4F)CC3)cc2)cc1 (stereo not shown) [Example 85] | 0.0156 to 0.25 µg/mL (≈ 0.03 to 0.481 µM) | 0.015 to 0.125 µg/mL (≈ 0.0289 to 0.241 µM) | 0.0625 to 0.125 µg/mL (≈ 0.12 to 0.241 µM) | 0.0625 µg/mL (≈ 0.12 µM) | 0.25 µg/mL (≈ 0.481 µM) | 0.00391 to 0.0313 µg/mL (≈ 0.00753 to 0.0602 µM) | 0.0625 to 0.25 µg/mL (≈ 0.12 to 0.481 µM) | 0.0625 to 0.5 µg/mL (≈ 0.12 to 0.962 µM) | 0.015 to 0.03 µg/mL (≈ 0.0289 to 0.0577 µM) | 0.00195 to 0.125 µg/mL (≈ 0.00375 to 0.241 µM) | 0.0078 µg/mL (≈ 0.015 µM) | 1 µg/mL (≈ 1.92 µM) | 0.00391 to 0.0313 µg/mL (≈ 0.00753 to 0.0602 µM) |  |  | 
4 | OC(CN1CCC2(CCC(Nc3ccc(OCCN4CCOCC4)cc3)CC2)C1)(Cn1cncn1)c1ccc(F)cc1F (stereo not shown) [Example 87] | 1 µg/mL (≈ 1.68 µM) | 0.125 µg/mL (≈ 0.209 µM) | 0.125 µg/mL (≈ 0.209 µM) |  | 2 µg/mL (≈ 3.35 µM) |  | 0.5 µg/mL (≈ 0.838 µM) | 0.25 µg/mL (≈ 0.419 µM) | 0.25 µg/mL (≈ 0.419 µM) | 0.25 µg/mL (≈ 0.419 µM) |  | 4 µg/mL (≈ 6.7 µM) | 0.313 µg/mL (≈ 0.525 µM) | 0.5 µg/mL (≈ 0.838 µM) | 0.0625 µg/mL (≈ 0.105 µM) | 0.313 µg/mL (≈ 0.525 µM)
5 | OC(CN1CCC2(CCN(c3ccc(OCCN4CCOCC4)cc3)CC2)C1)(Cn1cncn1)c1ccc(F)cc1F (stereo not shown) [Example 88] | 1 µg/mL (≈ 1.72 µM) | 0.125 µg/mL (≈ 0.215 µM) | 0.25 µg/mL (≈ 0.429 µM) | 0.5 µg/mL (≈ 0.858 µM) | 1 µg/mL (≈ 1.72 µM) | 0.0625 µg/mL (≈ 0.107 µM) | 0.5 µg/mL (≈ 0.858 µM) | 0.25 µg/mL (≈ 0.429 µM) | 0.125 µg/mL (≈ 0.215 µM) | 0.25 µg/mL (≈ 0.429 µM) | 0.0313 µg/mL (≈ 0.0537 µM) | 4 µg/mL (≈ 6.86 µM) | 0.0313 µg/mL (≈ 0.0537 µM) |  |  | 
6 | OC(CN1CCCN(c2ccc(OCCN3CCOCC3)cc2)CC1)(Cn1cncn1)c1ccc(F)cc1F (stereo not shown) [Example 89] | 0.5 µg/mL (≈ 0.921 µM) | 0.5 µg/mL (≈ 0.921 µM) | 4 to 8 µg/mL (≈ 7.37 to 14.7 µM) |  | 2 µg/mL (≈ 3.69 µM) |  | 1 µg/mL (≈ 1.84 µM) | 4 to 8 µg/mL (≈ 7.37 to 14.7 µM) | 0.25 µg/mL (≈ 0.461 µM) | 0.25 µg/mL (≈ 0.461 µM) |  | 2 µg/mL (≈ 3.69 µM) | 0.0313 µg/mL (≈ 0.0577 µM) | 1 µg/mL (≈ 1.84 µM) | 0.25 µg/mL (≈ 0.461 µM) | 0.156 µg/mL (≈ 0.287 µM)
7 | OC(CN1CCCC(Nc2ccc(OCCN3CCOCC3)cc2)CC1)(Cn1cncn1)c1ccc(F)cc1F (stereo not shown) [Example 91] | 2 µg/mL (≈ 3.59 µM) | 0.25 µg/mL (≈ 0.449 µM) | 4 µg/mL (≈ 7.19 µM) | 4 µg/mL (≈ 7.19 µM) | 8 µg/mL (≈ 14.4 µM) | 0.125 µg/mL (≈ 0.225 µM) | 2 µg/mL (≈ 3.59 µM) | 4 µg/mL (≈ 7.19 µM) | 0.5 µg/mL (≈ 0.898 µM) | 0.5 µg/mL (≈ 0.898 µM) | 0.0156 µg/mL (≈ 0.0281 µM) | 16 µg/mL (≈ 28.7 µM) | 0.0625 µg/mL (≈ 0.112 µM) |  |  | 
